Experimental data from patent US9066922B2, “Pharmaceutical composition for the treatment or prevention of diseases involving obesity, diabetes, metabolic syndrome, neuro-degenerative diseases and mitochondria dysfunction diseases” (MD BIOALPHA CO., LTD., priority 2005, dated 2015).

Tests used:
[1] = test system: C57BL/6JL Lep ob/Lep ob mice; assay: Blood lipid, glucose and enzyme levels in obese mice (ob/ob); type: in vivo; set-up: unit not given here; conditions: 100 mg/kg for 26 days
From the text: 10-week-old C57BL/6JL Lep ob/Lep ob male mice having obesity characteristics and predisposition were purchased from Daehan Biolink Co., Ltd. (Chungchongbuk-do, Korea). Animals were raised in a breeding room maintained at a temperature of 23 C, 55% humidity, illumination of 300 to 500 lux, a 12-h light/dark (L/D) cycle, and ventilation of 10 to 18 times/hr. Animals were fed ad libitum pellets of Purina Rodent Laboratory Chow 5001 (purchased from Purina Mills Inc., St. Louis, Mo., USA) as a solid feed for experimental animals and tap water as drinking water. Mice were allowed to acclimate to new environment of the breeding room for two weeks and were then administered some pyrano-o-naphthoquinone and furano-o-naphthoquinone derivatives synthesized according to the present invention at doses of 100 mg/kg for 26 days. Observation was made on changes in body weight, blood glucose and dietary intake, with respect to a time course of administration. After administration was complete, Computed Tomography (CT) was performed to confirm changes in adipose tissue distribution of animals, changes in fat distribution of tissues in various organs, changes in sizes of adipocytes, and changes in glucose, lipid and enzyme levels in blood and liver.

Sprague-Dawley rats = assay: Acute toxicity test, oral administration; type: in vivo; conditions: oral, 50, 100 and 200 mg/kg, observed for 2 weeks
DIO C57BL/6 mice = assay: Physical endurance (swimming test) in DIO C57BL/6 mice; type: in vivo; conditions: single administration, 3 hours later, vs control group
Protocol: This Example was intended to measure difference in physical endurance of mice through a swimming test. For this purpose, water was placed in a cylindrical trough having a diameter of 9.5 cm and height of 25 cm, and β-lapachone was administered to DIO C57BL/6 mice. 3 hours later, a sample-administered group and a control group were placed simultaneously into each cylindrical trough for measurement, and physical endurance of each group was compared.

[2] = test system: mRNAs of ACC1, ACC2, FAS, LPL, SCD1; assay: Expression of genes involved in lipid metabolism in DIO mice (real-time quantitative PCR); type: in vivo, C57BL/6 mice; conditions: 50 mg/kg daily oral, vs control group
Protocol: In order to investigate anti-obesity effects of β-lapachone, β-lapachone was administered daily to diet-induced obesity (DIO) mice at a dose of 50 mg/kg via an oral route, and an attempt was made to confirm levels of mRNAs of acetyl CoA carboxylase (ACC) 1 (7,8), ACC2 (9), fatty acid synthase (FAS) (10,11), lipoprotein lipase (LPL) (12-15), and stearoyl-CoA desaturase 1 (SCD1) (16,17), which participate in lipid metabolism in the liver and gonadal adipose tissues, by real-time quantitative PCR. These enzymes are very important for lipid metabolism; it is known that ACC catalyzes formation of malonyl CoA from acetyl CoA, FAS catalyzes formation of palmitate from malonyl CoA, and SCD1 catalyzes formation of monounsaturated fat, thus playing a critical role in formation of triacylglycerol, a major energy store. As such, these enzymes are closely correlated with obesity, diabetes, and lipid metabolism-related diseases. […] Therefore, from the results of such increased or decreased expression of genes for the above-mentioned enzymes, it can be inferred that β-lapachone will be therapeutically effective substance for the treatment of metabolic syndromes.

UCP 1 & 2 genes = assay: Expression of transcripts of UCP1 and UCP2 genes in DIO mice; type: in vivo, C57BL/6 mice; conditions: 50 mg/kg daily oral, liver and gonadal adipose tissues
Protocol: β-lapachone was administered daily to diet-induced obesity (DIO) mice at a dose of 50 mg/kg via an oral route, and levels of transcripts of uncoupling protein 1 & 2 (UCP 1 & 2) genes in the liver and gonadal adipose tissues was measured using real-time quantitative PCR. UCP 1 & 2 are enzymes that perform energy expenditure via heat generation, and it is reported that these enzymes function to consume energy without involving production of reactive oxygen species (ROS) and are also closely correlated with the incidence of obesity (38,39).

[3] = test system: endothelial nitric oxide synthase (eNOS); assay: Phosphorylation of eNOS in HUVEC; type: cell-based, Human; conditions: 10 μM
Protocol: It is well-known that activation of AMPK activates NRF-1 and facilitates mitochondrial biogenesis. In addition, NO/cGMP activates PGC-1a and NRF-1 to facilitate mitochondrial biogenesis. In order to ascertain whether β-lapachone, which activates AMPK, is involved in production of nitric oxide (NO), a degree of phosphorylation, increasing the activity of endothelial nitric oxide synthase (eNOS), was determined. In order to examine phosphorylation of eNOS by the action of β-lapachone, Human Umbilical Vein Endothelial Cells (HUVEC) were seeded onto a 60-mm plate at a density of 1×10^5 cells, and cultured in EBM2+5% FBS medium for 24 hours. The culture medium was replaced with a serum-free EBM2 medium, and cells were treated with β-lapachone (10 μM) for a predetermined period of time. Phosphorylated eNOS was observed using Anti-pS1177 eNOS.

AMPK = assay: Determination of AMPK activation in C2C12 myoblast cells (SAMS peptide, [γ-32P]ATP); type: cell-based; conditions: differentiated C2C12 myoblast cells, 5 μg/ml, compared with control (DMSO 0.5% = 1)
Protocol: Myoblast cells, C2C12, were cultured in DMEM containing 10% bovine calf serum. When a cell density reached a range of about 85% to 90%, the culture medium was replaced with a medium containing 1% bovine calf serum to induce differentiation of cells. The thus-differentiated myoblast cells were treated with samples synthesized in Examples 1 through 29 at a concentration of 5 μg/ml, and compared with a control group. Enzymatic activity of AMPK was determined as follows. Firstly, C2C12 cells were lysed to obtain protein extracts and then ammonium sulfate was added to a final concentration of 30%, thereby precipitating proteins. Protein precipitates were dissolved in a buffer (62.5 mM Hepes, pH 7.2, 62.5 mM NaCl, 62.5 mM NaF, 1.25 mM Na pyrophosphate, 1.25 mM EDTA, 1 mM DTT, 0.1 mM PMSF, and 200 μM AMP). Thereafter, 200 μM SAMS peptide (HMRSAMSGLHLVKRR: the underlined serine residue is a phosphorylation site, as an AMPK phosphorylation site of acetyl-CoA carboxylase) and [γ-32P]ATP were added thereto and reactants were reacted for 10 minutes at 30° C. This was followed by spotting of the resulting reaction solution on p81 phosphocellulose paper. The p81 paper was washed with a 3% phosphoric acid solution and radioactivity thereof was measured. For each reaction condition, reactions involving no SAMS peptide were also conducted and basic values were subtracted from the thus-observed values.

[4] = liver and gonadal adipose tissues

CC1(C)CCC2=C(O1)c1ccccc1C(=O)C2=O [Compound 1, β-Lapachone]
Cholesterol [1]: 121
GOT [1]: 42
GPT [1]: 39
Glucose [1]: 120
Triglyceride [1]: 143
mortality (Sprague-Dawley rats): none of the animals died
swimming duration (DIO C57BL/6 mice): more than two-fold swimming duration
expression level of mRNA of ACC1 [2, 4]: remarkably decreased
expression level of mRNA of ACC2 [2, 4]: remarkably decreased
expression level of mRNA of FAS [2, 4]: remarkably decreased
expression level of mRNA of LPL (listed among decreased) [2, 4]: remarkably decreased
expression level of mRNA of SCD1 [2, 4]: remarkably decreased
LPL mRNA levels, increase [2]: 2 fold
UCP1 mRNA level (UCP 1 & 2 genes): significant increases in mRNA levels
UCP2 mRNA level (UCP 1 & 2 genes): significant increases in mRNA levels
phosphorylation of eNOS after the maximum [3]: gradually diminished, thereby not observed 2 hours later
time of maximum increase of phosphorylation of eNOS (Anti-pS1177 eNOS) [3]: 30 min
AMPK fold (AMPK): 2.2 fold
